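Compound exposure: 48 hours, 5 concentrations, 96-well plates. At the TGI there is no net growth.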
What was measured:
Experiment in all cases: NCI-60 cell line screen, 48 h
[1] = system: SF-268 CNS
[2] = system: UACC-62 melanoma
[3] = system: KM20L2 colon
[4] = system: HOP-18 NSCLC
[5] = system: SK-MEL-2 melanoma
[6] = system: HT29 colon
[7] = system: SN12C renal
[8] = system: 786-0 renal
[9] = system: OVCAR-3 ovarian
[10] = system: MALME-3M melanoma
[11] = system: COLO 205 colon
[12] = system: U251 CNS
[13] = system: UO-31 renal
[14] = system: RPMI-8226 leukemia
[15] = system: IGROV1 ovarian
[16] = system: OVCAR-8 ovarian
[17] = system: SW-620 colon
[18] = system: NCI-H460 lung
[19] = system: SK-MEL-28 melanoma
[20] = system: OVCAR-5 ovarian
[21] = system: KM12 colon
[22] = system: HCT-116 colon
[23] = system: SF-295 CNS
[24] = system: TK-10 renal
[25] = system: A549 NSCLC
[26] = system: SF-539 CNS
[27] = system: K-562 leukemia
[28] = system: XF 498 CNS
[29] = system: EKVX NSCLC
[30] = system: SNB-19 CNS
[31] = system: SR leukemia
[32] = system: LXFL 529 NSCLC
[33] = system: RXF 393 renal
[34] = system: A498 renal
[35] = system: MOLT-4 leukemia
[36] = system: NCI-H522 lung
[37] = system: NCI-H23 lung
[38] = system: HL-60(TB) leukemia
[39] = system: SNB-75 CNS
[40] = system: SK-MEL-5 melanoma
[41] = system: HCC-2998 colon
[42] = system: LOX IMVI melanoma
[43] = system: UACC-257 melanoma
[44] = system: ACHN renal
[45] = system: M14 melanoma
[46] = system: M19-MEL melanoma
[47] = system: HOP-92 NSCLC
[48] = system: CCRF-CEM leukemia
[49] = system: DLD-1 colon
[50] = system: HCT-15 colon
[51] = system: SK-OV-3 ovarian
[52] = system: NCI-H226 lung
[53] = system: MCF7 breast
[54] = system: DMS 273 small cell lung
[55] = system: OVCAR-4 ovarian
[56] = system: SNB-78 CNS
[57] = system: PC-3 prostate
[58] = system: MDA-N
[59] = system: CAKI-1 renal
[60] = system: HOP-62 NSCLC
[61] = system: DU-145 prostate
[62] = system: MDA-MB-231 breast
[63] = system: HS 578T breast
[64] = system: T-47D breast
[65] = system: DMS 114 small cell lung
[66] = system: NCI/ADR-RES ovarian
[67] = system: MDA-MB-435
[68] = system: BT-549 breast

With CN1C2C=C(c3ccccc3)CC1CC2 (stereo unspecified) the TGI [1] was > 100 µM, the TGI [2] was > 100 µM and the TGI [3] was > 100 µM. For the same compound, the TGI [4] was > 100 µM, the TGI [5] was > 100 µM and the TGI [6] was > 100 µM. The TGI [7] was > 100 µM, the TGI [8] was > 100 µM and the TGI [9] was > 100 µM. For the same compound, the TGI [10] was > 100 µM, the TGI [11] was > 100 µM and the TGI [12] was > 100 µM. For the same compound, the TGI [13] was > 100 µM, the TGI [14] was > 100 µM and the TGI [15] was > 100 µM. The TGI [16] was > 100 µM, the TGI [17] was > 100 µM and the TGI [18] was > 100 µM. The TGI [19] was > 100 µM, the TGI [20] was > 100 µM and the TGI [21] was > 100 µM. For the same compound, the TGI [22] was > 100 µM, the TGI [23] was > 100 µM and the TGI [24] was > 100 µM. The TGI [25] was > 100 µM, the TGI [26] was > 100 µM and the TGI [27] was > 100 µM. The TGI [28] was > 100 µM, the TGI [29] was > 100 µM and the TGI [30] was > 100 µM. The TGI [31] was > 100 µM, the TGI [32] was > 100 µM and the TGI [33] was > 100 µM. The TGI [34] was > 100 µM, the TGI [35] was > 100 µM and the TGI [36] was > 100 µM. For the same compound, the TGI [37] was > 100 µM, the TGI [38] was > 100 µM and the TGI [39] was > 100 µM. The TGI [40] was > 100 µM, the TGI [41] was > 100 µM and the TGI [42] was > 100 µM. The TGI [43] was > 100 µM, the TGI [44] was > 100 µM and the TGI [45] was > 100 µM. The TGI [46] was > 100 µM, the TGI [47] was > 100 µM and the TGI [48] was > 100 µM. The TGI [49] was > 100 µM, the TGI [50] was > 100 µM and the TGI [51] was > 100 µM.
With CCN(CC)C(=S)SC1CCOP(=O)(N(CCCl)CCCl)N1C (stereo unspecified) the TGI [1] was 98.6 µM, the TGI [2] was 17.3 µM and the TGI [3] was > 100 µM. The TGI [4] was > 100 µM, the TGI [5] was 45.3 µM and the TGI [6] was > 100 µM. The TGI [52] was > 97.3 µM, the TGI [7] was 46 µM and the TGI [8] was > 80.1 µM. The TGI [9] was > 100 µM, the TGI [10] was 45.9 µM and the TGI [53] was > 100 µM. The TGI [54] was > 79.4 µM, the TGI [55] was 46.4 µM and the TGI [56] was > 100 µM. For the same compound, the TGI [12] was > 52.5 µM, the TGI [13] was > 96.4 µM and the TGI [14] was > 61.2 µM. The TGI [15] was > 53.1 µM, the TGI [16] was 49.2 µM and the TGI [17] was > 34.9 µM. The TGI [18] was 14.3 µM, the TGI [19] was 42.2 µM and the TGI [57] was > 100 µM. For the same compound, the TGI [20] was > 100 µM, the TGI [58] was > 100 µM and the TGI [21] was > 58.5 µM. The TGI [59] was > 86.8 µM, the TGI [22] was > 48.5 µM and the TGI [23] was > 100 µM. For the same compound, the TGI [60] was > 100 µM, the TGI [61] was > 100 µM and the TGI [24] was > 100 µM. For the same compound, the TGI [25] was > 100 µM, the TGI [26] was 56.6 µM and the TGI [27] was 49.9 µM. For the same compound, the TGI [29] was > 96.4 µM, the TGI [30] was > 100 µM and the TGI [31] was 50 µM. The TGI [32] was 19.3 µM, the TGI [33] was 76.1 µM and the TGI [34] was > 100 µM. The TGI [35] was 49.2 µM, the TGI [36] was 2.18 µM and the TGI [62] was > 100 µM. For the same compound, the TGI [37] was > 100 µM, the TGI [38] was 32.2 µM and the TGI [39] was > 100 µM. For the same compound, the TGI [40] was 30.8 µM, the TGI [41] was > 68.7 µM and the TGI [43] was > 56.1 µM. For the same compound, the TGI [63] was > 100 µM, the TGI [64] was > 100 µM and the TGI [65] was 0.553 µM. The TGI [44] was > 67.5 µM, the TGI [45] was > 54.1 µM and the TGI [46] was 14.8 µM. The TGI [47] was 43.9 µM, the TGI [66] was > 100 µM and the TGI [48] was 43.1 µM. The TGI [67] was > 100 µM, the TGI [49] was 21.3 µM and the TGI [50] was 91.5 µM. The TGI [51] was > 100 µM and the TGI [68] was > 100 µM.
CSc1ccc2c(cc1=O)C(NC(=O)c1ccc(OC(C)=O)cc1)CCc1cc(O)c(O)c(O)c1-2 (stereo unspecified) was tested, and the TGI [1] was > 100 µM, the TGI [2] was 36.3 µM and the TGI [3] was > 100 µM. For the same compound, the TGI [5] was 49.7 µM, the TGI [6] was 37.9 µM and the TGI [52] was 50.8 µM. For the same compound, the TGI [7] was 31.6 µM, the TGI [8] was > 100 µM and the TGI [9] was 44.5 µM. The TGI [10] was > 100 µM, the TGI [54] was 47.1 µM and the TGI [11] was 30.8 µM. For the same compound, the TGI [55] was 22 µM, the TGI [56] was > 100 µM and the TGI [12] was 39 µM. For the same compound, the TGI [13] was > 100 µM, the TGI [16] was 60.2 µM and the TGI [17] was 29.5 µM. For the same compound, the TGI [18] was 50.4 µM, the TGI [19] was > 100 µM and the TGI [20] was 78 µM. The TGI [21] was > 100 µM, the TGI [22] was 31.1 µM and the TGI [23] was 35.3 µM. The TGI [60] was > 100 µM, the TGI [24] was > 100 µM and the TGI [25] was > 100 µM. For the same compound, the TGI [26] was 40.1 µM, the TGI [27] was 7.53 µM and the TGI [29] was 44 µM. For the same compound, the TGI [30] was > 100 µM, the TGI [31] was 35.3 µM and the TGI [32] was 35.2 µM. For the same compound, the TGI [34] was > 100 µM, the TGI [35] was 28.9 µM and the TGI [36] was 28.8 µM. It also gave a TGI [37] of 67.7 µM, a TGI [38] of 21.9 µM and a TGI [39] of 55.6 µM. The TGI [40] was 31.5 µM, the TGI [41] was > 100 µM and the TGI [43] was 38.9 µM. The TGI [65] was 52.4 µM, the TGI [44] was > 100 µM and the TGI [45] was 30.7 µM. The TGI [46] was 29.2 µM, the TGI [48] was > 100 µM and the TGI [49] was 35.8 µM. The TGI [50] was 34.9 µM and the TGI [51] was 98.1 µM.
